According to patent US5006560A, “Use of GABA-B selective agonists as anti-tussive agents” (Schering Corporation, priority 1989, dated 1991):

Experiments:
[1] = tested on: citric acid-induced cough; assay: Citric acid-induced cough in guinea pigs; assay type: in vivo, guinea pig; details: for ED50: Cavia porcellus, sc, citric acid (0.55M) aerosol, guinea pigs, subcutaneous, read-out: ED50, reduction of cough frequency
Method: (§1) Unanesthetized male Dunkin Hartley guinea pigs (250-600 g) are placed into transparent plexiglas chambers and exposed to aerosols of capsaicin (300 μM), citric acid (0.55M), or their vehicles at an airflow of 4 L/min. Citric acid is dissolved in 0.9% saline vehicle and capsaicin is dissolved in 10% ethanol, 90% saline vehicle. The volume of solution aerosolized every minute is approximately 0.4 ml. The animals are first exposed to a vehicle aerosol for 4 minutes and then are exposed to citric acid or capsaicin aerosol for an additional 4 minutes. Coughing is detected by a microphone that is placed in the chamber and connected to an audio monitor and chart recorder. Coughs produced deflections on the chart paper which are later counted to determine a cough frequency. Test compounds are administered subcutaneously prior to exposure to citric acid or capsaicin. […] All statistics are expressed relative to control values (unpaired t-test). The results are shown in FIGS. 1A, 1B, 1C and 1D and are discussed below.
(§2) In FIGS. 1C and 1D, 3-APPA or vehicle was administered 45 minutes prior to data collection.
(§3) Guinea pigs were exposed to citric acid at a concentration of 0.55M. This dose of citric acid produced cough frequencies of 10-13 per exposure. The dose of capsaicin used was 0.3 mM and this dose produced cough frequencies of 7-9 per exposure. These doses produced consistent responses and were well tolerated by the animals. Larger doses (up to 2M for citric acid and 3 mM for capsaicin) produced distress to the animals. Lower doses (to 0.2M for citric acid and 0.03 mM for capsaicin) produced inconsistent cough responses.

[2] = tested on: electrically-induced cough; assay: Electrically-induced cough in cats (superior laryngeal nerve stimulation); assay type: in vivo, cat; details: electrical stimulus
Method: (§4) Cats (2.2-3.5 kg) are anesthetized with sodium pentobarbital (35 mg/kg, i.p.). Supplemental anesthetic (5 mg/kg, i.v.) is administered as required. Cannulas are placed in a femoral vein and artery for administering drugs and measuring arterial blood pressure, respectively. A tracheostomy is performed.
(§5) Electromyograms (EMGs) of respiratory muscle activity are recorded via bipolar silver wire electrodes placed in the diaphragm and rectus abdominus muscles by the technique of Basmajian and Stecko (1962). The EMGs are amplified (1000-2000×), filtered (500 Hz-10 KHz), monitored on an oscilloscope, and integrated with a "Leaky" RC circuit (100 ms time constant).
(§6) These stimuli only elicit coughs, apneas, apneusis, or augmented breaths (sighs).
(§7) Coughing is produced by coordinated bursts of activity in inspiratory and expiratory muscles. We define a cough as a burst of activity at least 50% greater than control levels in the diaphragm (inspiratory muscle) immediately followed by or coincident with a burst of activity in the rectus abdominus muscle (expiratory muscle). These criteria eliminate apneas or apneusis (no inspiratory or expiratory bursts) and augmented breaths (no expiratory muscle activity). Test compounds are administered intravenously to determine their effects on mechanically (probe) and electrically (SLN) induced cough. […]

capsaicin-induced cough = assay: Capsaicin-induced cough in guinea pigs; assay type: in vivo, guinea pig; details: for ED50: Cavia porcellus, sc, capsaicin (0.3 mM) aerosol, guinea pigs, subcutaneous, read-out: ED50, reduction of cough frequency
Method: as §1, §2, §3

[3] = tested on: mechanically-induced cough; assay: Mechanically-induced cough in cats (probing intrathoracic trachea); assay type: in vivo, cat; details: mechanical stimulus
Method: as §4, §5, §6, §7

[4] = 3-APPA 3 mg/kg i.v., baclofen 0.7 mg/kg i.v.

For `NCC(CC(=O)O)c1ccc(Cl)cc1` (racemic) [baclofen], the ED50 [1] was ~0.7 mg/kg, the “reduction in cough frequency” value ([1]; citric acid model, FIG. 1A, 1 hour after s.c. treatment) was “dose-dependent reduction in cough frequency” and the “inhibitory effect on coughing” value ([2]; cumulative i.v. doses, 5 minutes after injection, FIG. 3B) was “dose-dependent”. For the same compound, the ED50 (capsaicin-induced cough) was ~0.7 mg/kg, the “reduction in cough frequency” value (capsaicin-induced cough; capsaicin model, FIG. 1B, 1 hour after s.c. treatment) was “dose-dependent reduction in cough frequency” and the “inhibitory effect on coughing” value ([3]; cumulative i.v. doses, 5 minutes after injection, FIG. 3A) was “dose-dependent”.
`NCCCP(=O)(O)O` [3-APPA, 3-aminopropylphosphonic acid] was tested, and the “effect of prior treatment with 3-APPA on antitussive effect of baclofen” value ([1]; citric acid model, 3-APPA 10 mg/kg s.c. before baclofen 1.0 mg/kg s.c., FIG. 1C) was “attenuated”, the “effect of 3-APPA on antitussive response to baclofen” value [2, 4] was “attenuated these responses” and the “effect of prior treatment with 3-APPA on antitussive effect of baclofen” value (capsaicin-induced cough; capsaicin model, 3-APPA 10 mg/kg s.c. before baclofen 1.0 mg/kg s.c., FIG. 1D) was “attenuated”. For the same compound, the “effect of 3-APPA on antitussive response to baclofen” value [3, 4] was “attenuated these responses”.
In the case of `COc1ccc2c3c1O[C@H]1[C@@H](O)C=C[C@H]4[C@@H](C2)N(C)CC[C@@]341` [Codeine], the ED50 [1] was 30 mg/kg and the ED50 (capsaicin-induced cough) was 10 mg/kg.
